Assays:
[1] = biological target: CDK9/Cyclin T1 (Homo sapiens (Human), UniProt P50750); test: CDK9 enzyme assay (LANCE ULight TR-FRET kinase assay); format: biochemical; conditions: 1000 μM ATP, 100 nM ULight MBP, kinase reaction 1 hour
Procedure, shortened: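 Human CDK9/Cyclin T1 phosphorylating 100 nM ULight-MBP with 1000 μM ATP in HEPES/MgCl2 buffer, 1 h reaction. Stopped with 20 mM EDTA plus 0.5 nM Eu anti-phospho-MBP antibody, incubated 1 h, read by TR-FRET (ex 320 nm, em 615/665 nm).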

[2] = test system: H929 cells; test: Cell viability assay (Cell TiterGlo); format: cell-based; conditions: Cell TiterGlo luminescence
Method: The cell viability assay was performed using H929 cells. Cells were seeded in 96-well plates at 10,000 cells/well and, after overnight incubation, treated with compounds in a dose response of 3-fold dilutions from 10 μM to 0.005 μM ([…], 0.1% final DMSO concentration). After 24 hours at 37° C., cell viability was measured using Cell TiterGlo reagent (Promega) with a luminescence reader.

[3] = Homo sapiens, NCI-H929, 24 hours at 37° C.

Sequence of CDK9/Cyclin T1 (P50750 whole entry): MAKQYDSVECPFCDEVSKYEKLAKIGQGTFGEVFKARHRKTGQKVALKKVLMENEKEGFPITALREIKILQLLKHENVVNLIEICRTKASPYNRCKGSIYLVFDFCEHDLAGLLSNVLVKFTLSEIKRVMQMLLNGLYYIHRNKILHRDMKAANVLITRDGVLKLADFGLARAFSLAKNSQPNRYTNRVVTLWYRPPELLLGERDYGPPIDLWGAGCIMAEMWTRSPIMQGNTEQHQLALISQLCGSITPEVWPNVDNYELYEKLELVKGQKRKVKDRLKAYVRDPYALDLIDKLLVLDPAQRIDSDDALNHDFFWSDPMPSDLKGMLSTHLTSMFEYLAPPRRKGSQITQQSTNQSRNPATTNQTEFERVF
Sequence of CDK9/Cyclin T1 (O60563 whole entry partner): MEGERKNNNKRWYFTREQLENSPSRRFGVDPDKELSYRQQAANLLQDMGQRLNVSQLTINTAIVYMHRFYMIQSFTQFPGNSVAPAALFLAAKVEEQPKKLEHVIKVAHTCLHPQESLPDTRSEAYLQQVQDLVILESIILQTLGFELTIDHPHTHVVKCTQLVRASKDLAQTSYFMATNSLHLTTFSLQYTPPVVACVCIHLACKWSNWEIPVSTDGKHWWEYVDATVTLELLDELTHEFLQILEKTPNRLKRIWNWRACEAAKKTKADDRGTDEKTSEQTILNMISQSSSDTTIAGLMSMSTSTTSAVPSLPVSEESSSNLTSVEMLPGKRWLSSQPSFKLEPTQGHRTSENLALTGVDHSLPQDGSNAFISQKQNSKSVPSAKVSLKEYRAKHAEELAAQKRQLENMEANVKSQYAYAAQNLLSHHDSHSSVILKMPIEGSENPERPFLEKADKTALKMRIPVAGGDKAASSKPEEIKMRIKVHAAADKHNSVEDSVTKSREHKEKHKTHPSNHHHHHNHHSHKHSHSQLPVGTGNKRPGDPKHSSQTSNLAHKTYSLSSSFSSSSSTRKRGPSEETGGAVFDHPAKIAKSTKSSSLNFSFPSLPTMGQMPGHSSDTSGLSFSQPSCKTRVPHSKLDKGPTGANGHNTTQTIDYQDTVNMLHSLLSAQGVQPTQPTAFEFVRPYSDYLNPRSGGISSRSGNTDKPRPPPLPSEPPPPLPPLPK

| IC50 [2, 3] | SMILES | IC50 [1] | IC50 ([2]; 24 hours at 37° C.) |
| --- | --- | --- | --- |
| 3.1 µM | CN(CC(O)CO)C(=O)CN1CCC=C(c2[nH]c3nccc4c3c2CN(C)c2ccc(F)cc2-4)C1 (stereo not shown) [Example 123, N-(2,3-dihydroxypropyl)-2-[5-(10-fluoro-7-methyl-6,7-dihydro-4H-3,4,7-triazadibenzo[cd,f]azulen-5-yl)-3,6-dihydropyridin-1(2H)-yl]-N-methylacetamide] | 0.54 µM |  |
| 0.088 µM | CN1Cc2c(C3=CCN([C@H]4CC[C@@H](CC(=O)O)CC4)CC3)[nH]c3nccc(c23)-c2cc(F)ccc21 [Example 124, {cis-4-[4-(10-fluoro-7-methyl-6,7-dihydro-4H-3,4,7-triazadibenzo[cd,f]azulen-5-yl)-3,6-dihydropyridin-1(2H)-yl]cyclohexyl}acetic acid] | 0.048 µM |  |
| 0.3 µM | CN1Cc2c(C3=C[C@@H]4COC(=O)N4CC3)[nH]c3nccc(c23)-c2cc(F)c(F)cc21 [Example 125, (8aR)-7-(9,10-difluoro-7-methyl-6,7-dihydro-4H-3,4,7-triazadibenzo[cd,f]azulen-5-yl)-1,5,6,8a-tetrahydro[1,3]oxazolo[3,4-a]pyridin-3-one] | 0.054 µM |  |
|  | CN1CCc2c(C3=CCNCC3)[nH]c3nccc(c23)-c2cc(F)ccc21 [Example 127, 8-fluoro-5-methyl-2-(1,2,3,6-tetrahydropyridin-4-yl)-1,3,4,5-tetrahydro-1,5,12-triazabenzo[4,5]cycloocta[1,2,3-cd]indene] | 0.026 µM | 0.1 µM |
|  | CN1CCc2c(C3=CCN(S(C)(=O)=O)CC3)[nH]c3nccc(c23)-c2cc(F)ccc21 [Example 128, 8-fluoro-5-methyl-2-[1-(methylsulfonyl)-1,2,3,6-tetrahydropyridin-4-yl]-1,3,4,5-tetrahydro-1,5,12-triazabenzo[4,5]cycloocta[1,2,3-cd]indene] | 0.078 µM | 0.15 µM |
|  | CN(C)C(=O)CN1CC=C(c2[nH]c3nccc4c3c2CCN(C)c2ccc(F)cc2-4)CC1 [Example 129, 2-[4-(8-fluoro-5-methyl-1,3,4,5-tetrahydro-1,5,12-triazabenzo[4,5]cycloocta[1,2,3-cd]inden-2-yl)-3,6-dihydropyridin-1(2H)-yl]-N,N-dimethylacetamide] | 0.067 µM | 0.13 µM |
| 0.07 µM | CN1Cc2c(C3=CCN([C@H]4CC[C@H](CC(=O)O)CC4)CC3)[nH]c3nccc(c23)-c2cc(F)ccc21 [Example 130, {trans-4-[4-(10-fluoro-7-methyl-6,7-dihydro-4H-3,4,7-triazadibenzo[cd,f]azulen-5-yl)-3,6-dihydropyridin-1(2H)-yl]cyclohexyl}acetic acid] | 0.064 µM |  |
| 0.079 µM | CN1Cc2c(C3=CCN(S(C)(=O)=O)CC3)[nH]c3nccc(c23)-c2cc(F)c(F)cc21 [Example 131, 9,10-difluoro-7-methyl-5-[1-(methylsulfonyl)-1,2,3,6-tetrahydropyridin-4-yl]-6,7-dihydro-4H-3,4,7-triazadibenzo[cd,f]azulene] | 0.036 µM |  |
| 0.31 µM | COC(=O)C[C@H]1CC[C@@H](N2CC=C(c3[nH]c4nccc5c4c3CN(C)c3cc(F)c(F)cc3-5)CC2)CC1 [Example 134, methyl{cis-4-[4-(9,10-difluoro-7-methyl-6,7-dihydro-4H-3,4,7-triazadibenzo[cd,f]azulen-5-yl)-3,6-dihydropyridin-1(2H)-yl]cyclohexyl}acetate] | 0.047 µM |  |
| 0.021 µM | CN1Cc2c(C3=CCN([C@H]4CC[C@@H](CC(=O)O)CC4)CC3)[nH]c3nccc(c23)-c2cc(F)c(F)cc21 [Example 136, {cis-4-[4-(9,10-difluoro-7-methyl-6,7-dihydro-4H-3,4,7-triazadibenzo[cd,f]azulen-5-yl)-3,6-dihydropyridin-1(2H)-yl]cyclohexyl}acetic acid] | 0.058 µM |  |
| 0.18 µM | CN1Cc2c(C3=CCN(S(C)(=O)=O)CC3)[nH]c3nccc(c23)-c2cccnc21 [Example 138, 7-methyl-5-[1-(methylsulfonyl)-1,2,3,6-tetrahydropyridin-4-yl]-6,7-dihydro-4H-3,4,7,8-tetraazadibenzo[cd,f]azulene] | 0.069 µM |  |
| 0.18 µM | CNC(=O)N1CC=C(c2[nH]c3nccc4c3c2CN(C)c2ncccc2-4)CC1 [Example 139, N-methyl-4-(7-methyl-6,7-dihydro-4H-3,4,7,8-tetraazadibenzo[cd,f]azulen-5-yl)-3,6-dihydropyridine-1(2H)-carboxamide] | 0.094 µM |  |
| 0.032 µM | CN1Cc2c(C3=CCN([C@H]4CC[C@H](CC(=O)O)CC4)CC3)[nH]c3nccc(c23)-c2cc(F)c(F)cc21 [Example 146, {trans-4-[4-(9,10-difluoro-7-methyl-6,7-dihydro-4H-3,4,7-triazadibenzo[cd,f]azulen-5-yl)-3,6-dihydropyridin-1(2H)-yl]cyclohexyl}acetic acid] | 0.082 µM |  |
| 0.006 µM | CN1Cc2c(C3=CCN(CC(=O)N4CCC[C@H]4CO)CC3)[nH]c3nccc(c23)-c2cc(F)c(F)cc21 [Example 147, 2-[4-(9,10-difluoro-7-methyl-6,7-dihydro-4H-3,4,7-triazadibenzo[cd,f]azulen-5-yl)-3,6-dihydropyridin-1(2H)-yl]-1-[(2S)-2-(hydroxymethyl)pyrrolidin-1-yl]ethanone] | 0.045 µM |  |
| 0.025 µM | CN1Cc2c(C3=CCN(CC(=O)N(C)C4CC(O)C4)CC3)[nH]c3nccc(c23)-c2cc(F)c(F)cc21 (stereo not shown) [Example 148, 2-[4-(9,10-difluoro-7-methyl-6,7-dihydro-4H-3,4,7-triazadibenzo[cd,f]azulen-5-yl)-3,6-dihydropyridin-1(2H)-yl]-N-(3-hydroxycyclobutyl)-N-methylacetamide] | 0.053 µM |  |

| SMILES | IC50 [2, 3] | IC50 [1] | IC50 ([2]; 24 hours at 37° C.) |
| --- | --- | --- | --- |
| CN1Cc2c(C3=C[C@H](CO)NCC3)[nH]c3nccc(c23)-c2cc(F)c(F)cc21 [Example 126, [(2R)-4-(9,10-difluoro-7-methyl-6,7-dihydro-4H-3,4,7-triazadibenzo[cd,f]azulen-5-yl)-1,2,5,6-tetrahydropyridin-2-yl]methanol] | 0.039 µM | 0.058 µM |  |
| CN(C)C(=O)CN1CC=C(c2[nH]c3nccc4c3c2CN(C)c2cc(F)c(F)cc2-4)CC1 [Example 132, 2-[4-(9,10-difluoro-7-methyl-6,7-dihydro-4H-3,4,7-triazadibenzo[cd,f]azulen-5-yl)-3,6-dihydropyridin-1(2H)-yl]-N,N-dimethylacetamide] | 0.014 µM | 0.04 µM |  |
| CN1Cc2c(C3=CCNCC3)[nH]c3nccc(c23)-c2cccnc21 [Example 135, 7-methyl-5-(1,2,3,6-tetrahydropyridin-4-yl)-6,7-dihydro-4H-3,4,7,8-tetraazadibenzo[cd,f]azulene] | 0.076 µM | 0.063 µM |  |
| CN1Cc2c(C3=CCN(CC(=O)N4CC(O)C4)CC3)[nH]c3nccc(c23)-c2cc(F)c(F)cc21 [Example 137, 2-[4-(9,10-difluoro-7-methyl-6,7-dihydro-4H-3,4,7-triazadibenzo[cd,f]azulen-5-yl)-3,6-dihydropyridin-1(2H)-yl]-1-(3-hydroxyazetidin-1-yl)ethanone] | 0.045 µM | 0.052 µM |  |
| CN1Cc2c(C3=CCN(C4CC(CC(=O)O)C4)CC3)[nH]c3nccc(c23)-c2cc(F)ccc21 (stereo not shown) [Example 140, {3-[4-(10-fluoro-7-methyl-6,7-dihydro-4H-3,4,7-triazadibenzo[cd,f]azulen-5-yl)-3,6-dihydropyridin-1(2H)-yl]cyclobutyl}acetic acid] | 0.058 µM | 0.042 µM |  |
| CN1Cc2c(C3=CCN([C@H]4CC[C@H](C(=O)O)CC4)CC3)[nH]c3nccc(c23)-c2cc(F)ccc21 [Example 141, trans-4-[4-(10-fluoro-7-methyl-6,7-dihydro-4H-3,4,7-triazadibenzo[cd,f]azulen-5-yl)-3,6-dihydropyridin-1(2H)-yl]cyclohexanecarboxylic acid] | 0.03 µM | 0.051 µM |  |
| CC[C@H]1c2c(C3=CCNCC3)[nH]c3nccc(c23)-c2cc(F)ccc2N1C [Example 142, (6S)-6-ethyl-10-fluoro-7-methyl-5-(1,2,3,6-tetrahydropyridin-4-yl)-6,7-dihydro-4H-3,4,7-triazadibenzo[cd,f]azulene] | 0.005 µM | 0.03 µM |  |
| CC[C@@H]1c2c(C3=CCNCC3)[nH]c3nccc(c23)-c2cc(F)ccc2N1C [Example 143, (6R)-6-ethyl-10-fluoro-7-methyl-5-(1,2,3,6-tetrahydropyridin-4-yl)-6,7-dihydro-4H-3,4,7-triazadibenzo[cd,f]azulene] | 0.582 µM | 0.417 µM |  |
| CN1Cc2c(C3=CCNCC3)[nH]c3nccc(c23)-c2cc(F)c(F)cc21 [Example 144, 9,10-difluoro-7-methyl-5-(1,2,3,6-tetrahydropyridin-4-yl)-6,7-dihydro-4H-3,4,7-triazadibenzo[cd,f]azulene] | 0.007 µM | 0.029 µM |  |
| CN1Cc2c(C3=CCN(CC(=O)O)CC3)[nH]c3nccc(c23)-c2cc(F)c(F)cc21 [Example 145, [4-(9,10-difluoro-7-methyl-6,7-dihydro-4H-3,4,7-triazadibenzo[cd,f]azulen-5-yl)-3,6-dihydropyridin-1(2H)-yl]acetic acid] | 0.18 µM | 0.042 µM |  |
| CN(C)C(=O)CN1CC=C(c2[nH]c3nccc4c3c2CN(C)c2ncccc2-4)CC1 [Example 149, N,N-dimethyl-2-[4-(7-methyl-6,7-dihydro-4H-3,4,7,8-tetraazadibenzo[cd,f]azulen-5-yl)-3,6-dihydropyridin-1(2H)-yl]acetamide] | 0.16 µM | 0.11 µM |  |

Source: patent US9328112B2, “Tetracyclic CDK9 kinase inhibitors” (AbbVie Inc., priority 2014, dated 2016)
